The results in this text go back to patent US20230346961A1, “GLP-1 AND GIP RECEPTOR CO-AGONISTS” (Novo Nordisk A/S, priority 2020, published 2023).

One series concerns the target T1, mouse GIP receptor (Mus musculus, UniProt Q0P543).
T1 sequence (Q0P543 19-460): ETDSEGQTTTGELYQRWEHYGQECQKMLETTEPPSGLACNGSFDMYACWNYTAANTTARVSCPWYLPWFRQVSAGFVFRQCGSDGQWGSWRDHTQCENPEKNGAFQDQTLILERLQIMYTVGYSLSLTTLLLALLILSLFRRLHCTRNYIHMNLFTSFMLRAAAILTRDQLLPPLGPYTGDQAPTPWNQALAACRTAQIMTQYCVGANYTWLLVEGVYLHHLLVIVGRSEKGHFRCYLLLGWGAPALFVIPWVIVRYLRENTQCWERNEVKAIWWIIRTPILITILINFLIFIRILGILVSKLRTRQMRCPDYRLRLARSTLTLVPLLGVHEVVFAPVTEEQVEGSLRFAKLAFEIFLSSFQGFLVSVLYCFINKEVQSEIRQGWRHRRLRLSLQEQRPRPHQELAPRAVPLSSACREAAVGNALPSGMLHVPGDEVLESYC
Description: cell-based.

For a further series, the target named is human GLP-1 receptor (Homo sapiens, UniProt P43220). The series is described as follows: cell-based. The following applies: hGLP-1R.
Chain of human GLP-1 receptor (P43220 24-463): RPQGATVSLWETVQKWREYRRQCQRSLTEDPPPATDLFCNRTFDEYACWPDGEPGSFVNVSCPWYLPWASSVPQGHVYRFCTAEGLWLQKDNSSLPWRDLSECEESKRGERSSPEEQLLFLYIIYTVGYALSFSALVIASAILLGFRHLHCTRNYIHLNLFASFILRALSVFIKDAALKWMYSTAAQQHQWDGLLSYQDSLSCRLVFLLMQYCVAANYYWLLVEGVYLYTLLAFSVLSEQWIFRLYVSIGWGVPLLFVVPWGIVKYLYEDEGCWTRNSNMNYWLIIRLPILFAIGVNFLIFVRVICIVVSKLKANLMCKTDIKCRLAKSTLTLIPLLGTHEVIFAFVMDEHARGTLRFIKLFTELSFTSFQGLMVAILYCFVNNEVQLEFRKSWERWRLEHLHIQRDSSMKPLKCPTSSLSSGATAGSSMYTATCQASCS
Series [1] is described as follows: Pharmacokinetic study in minipigs (terminal half-life after i.v. administration). It counts as in vivo. As to conditions: female, Göttingen, minipig, iv. As for the experimental part:
The purpose of this example is to determine the half-life in vivo of the derivatives of the present invention after i.v. administration to minipigs, i.e. the prolongation of their time in the body and thereby their time of action. This is done in a pharmacokinetic (PK) study, where the terminal half-life of the derivative in question is determined. By terminal half-life is generally meant the period of time it takes to […] certain plasma concentration, measured after the initial distribution phase. Female Göttingen minipigs were obtained from Ellegaard Göttingen Minipigs (Dalmose, Denmark) approximately 7-14 months of age and weighing from approximately 16-35 kg were used in the studies. The minipigs were housed individually and fed restrictedly once daily with SDS minipig diet (Special Diets Services, Essex, UK). After at 3 weeks of acclimatisation two permanent central venous catheters were implanted in vena cava caudalis in each animal. The animals were allowed 1 week recovery after the surgery, and were then used for repeated pharmacokinetic studies with a suitable wash-out period between successive derivative dosing. The animals were fasted for approximately 18 hours before dosing and from 0 to 4 hours after dosing, but had adlibitum access to water during the whole period. […] Blood samples (for example 0.8 mL) were collected in 8 mM EDTA buffer and then centrifuged at 4° C. and 1942 g for 10 minutes. Plasma was pipetted into Micronic tubes on dry ice and kept at -20° C. until analysed for plasma concentration of the compounds using ELISA, or a similar antibody-based assay, or LCMS. […] (Pharsight Inc., Mountain View, CA, USA), and the resulting terminal half-lives (harmonic mean) determined.

For another series, the target named is human glucagon receptor (Homo sapiens, UniProt P47871). The series is described as follows: cell-based.
Chain of human glucagon receptor (P47871 26-477): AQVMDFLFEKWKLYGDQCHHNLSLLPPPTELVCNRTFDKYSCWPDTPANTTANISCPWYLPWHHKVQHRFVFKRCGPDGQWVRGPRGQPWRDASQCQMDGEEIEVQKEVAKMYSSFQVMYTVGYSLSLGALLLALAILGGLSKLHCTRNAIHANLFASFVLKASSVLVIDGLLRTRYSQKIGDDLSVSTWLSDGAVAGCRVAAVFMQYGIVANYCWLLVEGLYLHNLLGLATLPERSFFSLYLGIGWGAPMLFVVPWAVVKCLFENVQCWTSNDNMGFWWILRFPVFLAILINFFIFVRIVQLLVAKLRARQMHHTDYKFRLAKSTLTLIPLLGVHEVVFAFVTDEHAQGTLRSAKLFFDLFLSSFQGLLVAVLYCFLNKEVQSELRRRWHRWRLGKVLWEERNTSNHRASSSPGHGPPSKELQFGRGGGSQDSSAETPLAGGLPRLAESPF
In the next series the target is T2, mouse GLP-1 receptor (Mus musculus, UniProt O35659).
T2 sequence (O35659 22-463): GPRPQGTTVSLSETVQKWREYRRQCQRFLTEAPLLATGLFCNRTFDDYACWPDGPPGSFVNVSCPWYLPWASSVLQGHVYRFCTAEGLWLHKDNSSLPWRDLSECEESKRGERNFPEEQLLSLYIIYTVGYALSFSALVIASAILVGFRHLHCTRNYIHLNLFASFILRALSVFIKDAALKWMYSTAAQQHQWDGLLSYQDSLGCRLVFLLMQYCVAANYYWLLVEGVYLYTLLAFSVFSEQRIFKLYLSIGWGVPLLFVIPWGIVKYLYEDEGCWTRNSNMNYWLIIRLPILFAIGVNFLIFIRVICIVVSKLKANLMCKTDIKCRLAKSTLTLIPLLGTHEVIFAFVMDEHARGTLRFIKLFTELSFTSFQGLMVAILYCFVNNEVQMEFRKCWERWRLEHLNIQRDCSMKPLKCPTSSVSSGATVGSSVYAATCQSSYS

Where two headings read alike, the source gives them in different places. Starred links: 1 amine or outer side, 2 acyl side, 3 side chain; linkers in the order of their positions; H or OH if unused. Non-standard residues stand in square brackets, D forms with d. Residues, ends and D or L forms follow the SMILES beside them. Groups on a side chain read outwards from the residue. *: point of attachment. C20 diacid = O=C(O)CCCCCCCCCCCCCCCCCCC(=O)*; γGlu = O=C(O)[C@H](CCC(=O)[*:2])N[*:1]; εLys = N[C@@H](CCCCN[*:1])C(=O)[*:2]; Trx = NC[C@H]1CC[C@H](C(=O)O)CC1; AEEA = NCCOCCOCC(=O)O; Aib = CC(C)(N)C(=O)O

The EC50 is the midpoint of the concentration-response curve. High values mean a need for much substance, low ones an effect from little substance. As to `CC[C@H](C)[C@H](NC(=O)[C@H](CO)NC(=O)[C@H](Cc1ccc(O)cc1)NC(=O)[C@H](CC(=O)O)NC(=O)[C@H](CO)NC(=O)[C@@H](NC(=O)[C@H](Cc1ccccc1)NC(=O)[C@@H](NC(=O)CNC(=O)[C@H](CCC(=O)O)NC(=O)C(C)(C)NC(=O)[C@@H](N)Cc1ccc(O)cc1)[C@@H](C)O)[C@@H](C)O)C(=O)N[C@@H](Cc1ccc(O)cc1)C(=O)N[C@@H](CC(C)C)C(=O)N[C@@H](CCC(=O)O)C(=O)N[C@@H](CCCCNC(=O)COCCOCCNC(=O)COCCOCCNC(=O)CC[C@H](NC(=O)[C@H]1CC[C@H](CNC(=O)CCCCCCCCCCCCCCCCCCC(=O)O)CC1)C(=O)O)C(=O)N[C@@H](CCC(N)=O)C(=O)N[C@@H](C)C(=O)N[C@@H](C)C(=O)NC(C)(C)C(=O)N[C@@H](CCC(=O)O)C(=O)N[C@@H](Cc1ccccc1)C(=O)N[C@H](C(=O)N[C@@H](CC(N)=O)C(=O)N[C@@H](Cc1c[nH]c2ccccc12)C(=O)N[C@@H](CC(C)C)C(=O)N[C@@H](CC(C)C)C(=O)N[C@@H](C)C(=O)NCC(=O)NCC(=O)N1CCC[C@H]1C(=O)N[C@@H](CO)C(=O)N[C@@H](CO)C(=O)NCC(=O)N[C@@H](C)C(=O)N1CCC[C@H]1C(=O)N1CCC[C@H]1C(=O)N1CCC[C@H]1C(=O)N[C@@H](CO)C(N)=O)C(C)C` [Compound 21] (H-Y[Aib]EGTFTSDYSIYLEK([AEEA-AEEA-γGlu-Trx-C20 diacid])QAA[Aib]EFVNWLLAGGPSSGAPPPS-NH2; N-terminus assumed), the EC50 is 0.0366 nM at mouse GIP receptor; 0.003 nM on human GLP-1 receptor (CRE Luc 0% HSA EC50, 0% HSA); 0.465 nM on human GLP-1 receptor (CRE Luc 1% HSA EC50, 1% HSA); over 10 nM on human glucagon receptor; 0.0026 nM on mouse GLP-1 receptor. Further, the half-life in series [1] (in vivo) is 62 h.

On to `CC[C@H](C)[C@H](NC(=O)[C@H](CO)NC(=O)[C@H](Cc1ccc(O)cc1)NC(=O)[C@H](CC(=O)O)NC(=O)[C@H](CO)NC(=O)[C@@H](NC(=O)[C@H](Cc1ccccc1)NC(=O)[C@@H](NC(=O)CNC(=O)[C@H](CCC(=O)O)NC(=O)C(C)(C)NC(=O)[C@@H](N)Cc1ccc(O)cc1)[C@@H](C)O)[C@@H](C)O)C(=O)N[C@@H](Cc1ccc(O)cc1)C(=O)N[C@@H](CC(C)C)C(=O)N[C@@H](CCC(=O)O)C(=O)N[C@@H](CCCCN)C(=O)N[C@@H](CCCCNC(=O)COCCOCCNC(=O)COCCOCCNC(=O)CC[C@H](NC(=O)[C@H]1CC[C@H](CNC(=O)CCCCCCCCCCCCCCCCCCC(=O)O)CC1)C(=O)O)C(=O)N[C@@H](C)C(=O)N[C@@H](C)C(=O)NC(C)(C)C(=O)N[C@@H](CCC(=O)O)C(=O)N[C@@H](Cc1ccccc1)C(=O)N[C@H](C(=O)N[C@@H](CC(N)=O)C(=O)N[C@@H](Cc1c[nH]c2ccccc12)C(=O)N[C@@H](CC(C)C)C(=O)N[C@@H](CC(C)C)C(=O)N[C@@H](C)C(=O)NCC(=O)NCC(=O)N1CCC[C@H]1C(=O)N[C@@H](CO)C(=O)N[C@@H](CO)C(=O)NCC(=O)N[C@@H](C)C(=O)N1CCC[C@H]1C(=O)N1CCC[C@H]1C(=O)N1CCC[C@H]1C(=O)N[C@@H](CO)C(N)=O)C(C)C` [Compound 22] (H-Y[Aib]EGTFTSDYSIYLEKK([AEEA-AEEA-γGlu-Trx-C20 diacid])AA[Aib]EFVNWLLAGGPSSGAPPPS-NH2; N-terminus assumed), for which the EC50 on mouse GIP receptor is 0.124 nM; on human GLP-1 receptor (CRE Luc 0% HSA EC50, 0% HSA), 0.0033 nM; at human GLP-1 receptor (CRE Luc 1% HSA EC50, 1% HSA), 1.13 nM; on human glucagon receptor, over 10 nM; at mouse GLP-1 receptor, 0.0021 nM. The molecule further showed a half-life in series [1] (in vivo) of 95 h.

`CC[C@H](C)[C@H](NC(=O)[C@H](CO)NC(=O)[C@H](Cc1ccc(O)cc1)NC(=O)[C@H](CC(=O)O)NC(=O)[C@H](CO)NC(=O)[C@@H](NC(=O)[C@H](Cc1ccccc1)NC(=O)[C@@H](NC(=O)CNC(=O)[C@H](CCC(=O)O)NC(=O)C(C)(C)NC(=O)[C@@H](N)Cc1ccc(O)cc1)[C@@H](C)O)[C@@H](C)O)C(=O)N[C@@H](Cc1ccc(O)cc1)C(=O)N[C@@H](CC(C)C)C(=O)N[C@@H](CCC(=O)O)C(=O)N[C@@H](CCCCNC(=O)[C@@H](N)CCCCNC(=O)[C@@H](N)CCCCNC(=O)CC[C@H](NC(=O)CCCCCCCCCCCCCCCCCCC(=O)O)C(=O)O)C(=O)N[C@@H](CCC(N)=O)C(=O)N[C@@H](C)C(=O)N[C@@H](C)C(=O)NC(C)(C)C(=O)N[C@@H](CCC(=O)O)C(=O)N[C@@H](Cc1ccccc1)C(=O)N[C@H](C(=O)N[C@@H](CC(N)=O)C(=O)N[C@@H](Cc1c[nH]c2ccccc12)C(=O)N[C@@H](CC(C)C)C(=O)N[C@@H](CC(C)C)C(=O)N[C@@H](C)C(=O)NCC(=O)NCC(=O)N1CCC[C@H]1C(=O)N[C@@H](CO)C(=O)N[C@@H](CO)C(=O)NCC(=O)N[C@@H](C)C(=O)N1CCC[C@H]1C(=O)N1CCC[C@H]1C(=O)N1CCC[C@H]1C(=O)N[C@@H](CO)C(N)=O)C(C)C` [Compound 28] (H-Y[Aib]EGTFTSDYSIYLEK([εLys-εLys-γGlu-C20 diacid])QAA[Aib]EFVNWLLAGGPSSGAPPPS-NH2; N-terminus assumed): the EC50 on mouse GIP receptor was 0.026 nM; at human GLP-1 receptor (CRE Luc 0% HSA EC50, 0% HSA) it was 0.005 nM; at human GLP-1 receptor (CRE Luc 1% HSA EC50, 1% HSA), 0.356 nM; on human glucagon receptor, over 10 nM; on mouse GLP-1 receptor, 0.0023 nM. In addition, in series [1] (plasma, minipigs, i.v. administration, harmonic mean, read-out: Terminal half-life t1/2 (converted)), the half-life was 111 h.
